Assay results as given in patent US9745283B2, “Uracil derivatives as AXL and c-MET kinase inhibitors” (priority 2011, dated 2017).

What was measured:
[1] = target: recombinant human baculovirus-expressed AXL (Homo sapiens (Human), UniProt P30530); assay: AXL Kinase Assay (HTRF KinEASE); format: biochemical; details: average of two or more determinations
[2] = target: recombinant human baculovirus-expressed cMET (Homo sapiens (Human), UniProt P08581); assay: C-MET Kinase Assay (HTRF KinEASE); format: biochemical; details: average of two or more determinations; read-out: c-MET IC50
How it was run: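 HTRF KinEASE format with recombinant human baculovirus-expressed cMET at 8 ng/mL, biotinylated peptide at 0.1 μM and ATP at 0.02 μM. IC50 came from percent control activity versus log concentration, fitted by nonlinear regression to a variable-slope sigmoidal equation with bottom fixed at 0 and top at 100.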

Compound | IC50 [1] | IC50 [2]
COc1cc2nccc(Oc3ccc(NC(=O)c4nn(C)c(=O)n(CC(C)(C)C)c4=O)cc3F)c2cc1OC [Example 129, 4-(2,2-Dimethylpropyl)-2-methyl-3,5-dioxo-2,3,4,5-tetrahydro-[1,2,4]triazine-6-carboxylic acid [4-(6,7-dimethoxyquinolin-4-yloxy)-3-fluorophenyl]-amide] | < 10 nM | 10 to 100 nM
Cn1cc(C(=O)Nc2ccc(Oc3ccnc4cc5c(cc34)OCO5)c(F)c2)c(=O)n(-c2ccc(F)cc2)c1=O [Example 131, 3-(4-Fluoro-phenyl)-1-methyl-2,4-dioxo-1,2,3,4-tetrahydro-pyrimidine-5-carboxylic acid [4-([1,3]dioxolo[4,5-g]quinolin-8-yloxy)-3-fluoro-phenyl]-amide] | < 10 nM | 10 to 100 nM
CCn1cc(C(=O)Nc2ccc(Oc3ccnc4cc(OC)c(OC)cc34)cc2OC)c(=O)n(-c2ccc(F)cc2)c1=O [Example 143, 1-Ethyl-3-(4-fluorophenyl)-2,4-dioxo-1,2,3,4-tetrahydropyrimidine-5-carboxylic acid [4-(6,7-dimethoxy-quinolin-4-yloxy)-2-methoxyphenyl]-amide] | < 10 nM | < 10 nM
COc1cc(Oc2ccnc3cc(OC)c(OC)cc23)ccc1NC(=O)c1cn(C)c(=O)n(-c2ccc(F)cc2)c1=O [Example 144, 1-Methyl-3-(4-fluoro-phenyl)-2,4-dioxo-1,2,3,4-tetrahydro-pyrimidine-5-carboxylic acid [4-(6,7-dimethoxy-quinolin-4-yloxy)-2-methoxy-phenyl]-amide] | < 10 nM | 10 to 100 nM
COc1cc(Oc2ccnc3cc(OC)c(OC)cc23)ccc1NC(=O)c1cn(C(C)C)c(=O)n(-c2ccc(F)cc2)c1=O [Example 145, 1-Isopropyl-3-(4-fluoro-phenyl)-2,4-dioxo-1,2,3,4-tetrahydro-pyrimidine-5-carboxylic acid [4-(6,7-dimethoxy-quinolin-4-yloxy)-2-methoxy-phenyl]-amide] | < 10 nM | 10 to 100 nM
COc1cc2nccc(Oc3ccc(NC(=O)c4cn(C)c(=O)n(-c5ccc(F)cc5)c4=O)c(F)c3F)c2cc1OC [Example 146, 1-Methyl-3-(4-fluorophenyl)-2,4-dioxo-1,2,3,4-tetrahydro-pyrimidine-5-carboxylic acid [4-(6,7-dimethoxy-quinolin-4-yloxy)-2,3-difluoro-phenyl]-amide] | < 10 nM | < 10 nM
CCn1cc(C(=O)Nc2ccc(Oc3ccnc4cc(OC)c(OC)cc34)c(F)c2F)c(=O)n(-c2ccc(F)cc2)c1=O [Example 147, 1-Ethyl-3-(4-fluoro-phenyl)-2,4-dioxo-1,2,3,4-tetrahydro-pyrimidine-5-carboxylic acid [4-(6,7-dimethoxy-quinolin-4-yloxy)-2,3-difluoro-phenyl]-amide] | < 10 nM | < 10 nM
COc1cc2nccc(Oc3ccc(NC(=O)c4c[nH]c(=O)n(-c5ccc(F)cc5)c4=O)cc3C)c2cc1OC [Example 149, 3-(4-Fluoro-phenyl)-2,4-dioxo-1,2,3,4-tetrahydro-pyrimidine-5-carboxylic acid [4-(6,7-dimethoxy-quinolin-4-yloxy)-3-methyl-phenyl]-amide] | < 10 nM | < 10 nM
COc1cc2nccc(Oc3ccc(NC(=O)c4c[nH]c(=O)n(-c5ccc(F)cc5)c4=O)cc3OC)c2cc1OC [Example 150, 3-(4-Fluoro-phenyl)-2,4-dioxo-1,2,3,4-tetrahydro-pyrimidine-5-carboxylic acid [4-(6,7-dimethoxy-quinolin-4-yloxy)-3-methoxy-phenyl]-amide] | < 10 nM | 10 to 100 nM
CCn1cc(C(=O)Nc2ccc(Oc3ccnc4cc(OC)c(OC)cc34)c(OC)c2)c(=O)n(-c2ccc(F)cc2)c1=O [Example 151, 1-Ethyl-3-(4-fluoro-phenyl)-2,4-dioxo-1,2,3,4-tetrahydro-pyrimidine-5-carboxylic acid [4-(6,7-dimethoxy-quinolin-4-yloxy)-3-methoxy-phenyl]-amide] | < 10 nM | 10 to 100 nM
CCn1cc(C(=O)Nc2ccc(Oc3ccnc4cc(OC)c(OC)cc34)c(C(F)(F)F)c2)c(=O)n(-c2ccc(F)cc2)c1=O [Example 159, 1-Ethyl-3-(4-fluoro-phenyl)-2,4-dioxo-1,2,3,4-tetrahydro-pyrimidine-5-carboxylic acid [4-(6,7-dimethoxy-quinolin-4-yloxy)-3-trifluoromethyl-phenyl]-amide] | < 10 nM | 10 to 100 nM
CCn1nc(C(=O)Nc2ccc(Oc3ccnc4cc(OC)ccc34)c(F)c2)c(=O)n(-c2ccc(F)cc2)c1=O [Example 171, 2-Ethyl-4-(4-fluoro-phenyl)-3,5-dioxo-2,3,4,5-tetrahydro-1,2,4-triazine-6-carboxylic acid [3-fluoro-4-(7-methoxy-quinolin-4-yloxy)-phenyl]-amide] | < 10 nM | < 10 nM
